The text below walks through data of ChEMBL document CHEMBL1121592, “Mutagenicity of substituted (o-phenylenediamine)platinum dichloride in the Ames test. A quantitative structure-activity analysis” (J Med Chem, 1980).

The subject of this assay is Salmonella typhimurium. As to the kind of experiment: Compound was tested in Ames test using Salmonella Typhimurium (TA-92). C is the molar concentration of compound producing 30 mutations/(10e 8) bacteria delivered. The format is functional, organism-based. Particulars: Salmonella enterica subsp. enterica serovar Typhimurium.
In turn, “0-Hexyl-1,3-diamine-platinum 2,2-dichloride” registered a Log 1/C of 4.22.

Turning to “0-Phenylene-1,3-diamine-platinum 2,2-dichloride-3,4,5-trichloro”, the Log 1/C is 7.73.

“0-Phenylene-1,3-diamine-platinum 2,2-dichloride-4,5-dichloro” yielded a Log 1/C of 6.89.

“0-Phenylene-1,3-diamine-platinum 2,2-dichloride-4-benzoyl” gave a Log 1/C of 7.52.

As to “0-Phenylene-1,3-diamine-platinum 2,2-dichloride-4-carboxylic acid methyl ester”, the Log 1/C was 7.

“0-Phenylene-1,3-diamine-platinum 2,2-dichloride-4-ethoxy” yielded a Log 1/C of 5.6.

Take “0-Phenylene-1,3-diamine-platinum 2,2-dichloride-4-methoxy”: the Log 1/C amounted to 5.65.

Take “0-Phenylene-1,3-diamine-platinum 2,2-dichloride-4-methyl”: the Log 1/C worked out at 5.6.

In turn, “0-Phenylene-1,3-diamine-platinum 2,2-dichloride-4-nitro” showed a Log 1/C of 8.65.

On to “4,5-benzoPhenylene-1,3-diamine-platinum 2,2-dichloride-”, for which the Log 1/C was determined as 5.92.

Consider CISPLATIN, for which the Log 1/C stood at 4.52.

Substance “Phenylene-1,3-diamine-platinum 2,2-dichloride-4,5-dimethoxy” returned a Log 1/C of 4.64.
